Measurements published in patent publication US20140378408A1, “NUCLEOSIDE 5'-PHOSPHOROTHIOATE ANALOGUES AND USES THEREOF” (BAR-ILAN UNIVERSITY, an Israeli University, priority 2012, published 2014).
Like-named read-outs stand apart in the source and are kept apart here. Blank lines part the entries; values can stand above or below the compound they belong to.

Experiments:
cortical neurons = experiment: Neuroprotection of cultured cortical neurons exposed to FeSO4 or FeSO4/H2O2; type: cell-based; conditions: Table 2, neuroprotection of primary neurons exposed to FeSO4, read-out: IC50
Method: FIGS. 10A-10B show the neuroprotective effect of ATP-γ-S and GDP-β-S (0.2-200 μM, t=24 h) as evaluated by MTT production in cortical neurons exposed for 24 h to either FeSO4 at final concentration of 3 μM (10A); or both FeSO4 (3 μM) and H2O2 (100 μM) (10B). The results shown are the mean±SEM of three independent experiments in quadruplicate.
Cultured cortical neurons in 96-well plates were treated with different concentrations of FeSO4, or hydrogen peroxide and FeSO4, for 24 h at 37° C. Following exposure to various insults, the cells were treated with ATP-γ-S and GDP-β-S as described. Cells were subsequently incubated for a further 18-24 h as indicated before being assessed for viability measures. Neurons were treated with ATP-γ-S and GDP-β-S at three concentrations ([…]) simultaneously with 1.5, 3 or 6 μM FeSO4 for 24 h. Following 24 h incubation in the presence of both FeSO4 and ATP-γ-S and GDP-β-S cell viability measures were assessed by XTT assay. All experiments were performed in triplicate.
FeSO4 induced a concentration-dependent decrease in cell viability as assessed by XTT assay and morphological assessment following 24 h of exposure (FIG. 9). The neuroprotective effect of ATP-γ-S and GDP-β-S (due to iron chelation) was evaluated in cortical neurons exposed to FeSO4 for 24 h (FIG. 10).

human NPP1 = target: T1, human NPP1 (Homo sapiens, UniProt P22413); experiment: Inhibition of NPP1 activity; type: biochemical; conditions: Dixon and Cornish-Bowden methods
T1 construct: made in house; host or cells: COS-7 cells (transfected; protein extract / cell lysate)
T1 sequence (P22413 1-925): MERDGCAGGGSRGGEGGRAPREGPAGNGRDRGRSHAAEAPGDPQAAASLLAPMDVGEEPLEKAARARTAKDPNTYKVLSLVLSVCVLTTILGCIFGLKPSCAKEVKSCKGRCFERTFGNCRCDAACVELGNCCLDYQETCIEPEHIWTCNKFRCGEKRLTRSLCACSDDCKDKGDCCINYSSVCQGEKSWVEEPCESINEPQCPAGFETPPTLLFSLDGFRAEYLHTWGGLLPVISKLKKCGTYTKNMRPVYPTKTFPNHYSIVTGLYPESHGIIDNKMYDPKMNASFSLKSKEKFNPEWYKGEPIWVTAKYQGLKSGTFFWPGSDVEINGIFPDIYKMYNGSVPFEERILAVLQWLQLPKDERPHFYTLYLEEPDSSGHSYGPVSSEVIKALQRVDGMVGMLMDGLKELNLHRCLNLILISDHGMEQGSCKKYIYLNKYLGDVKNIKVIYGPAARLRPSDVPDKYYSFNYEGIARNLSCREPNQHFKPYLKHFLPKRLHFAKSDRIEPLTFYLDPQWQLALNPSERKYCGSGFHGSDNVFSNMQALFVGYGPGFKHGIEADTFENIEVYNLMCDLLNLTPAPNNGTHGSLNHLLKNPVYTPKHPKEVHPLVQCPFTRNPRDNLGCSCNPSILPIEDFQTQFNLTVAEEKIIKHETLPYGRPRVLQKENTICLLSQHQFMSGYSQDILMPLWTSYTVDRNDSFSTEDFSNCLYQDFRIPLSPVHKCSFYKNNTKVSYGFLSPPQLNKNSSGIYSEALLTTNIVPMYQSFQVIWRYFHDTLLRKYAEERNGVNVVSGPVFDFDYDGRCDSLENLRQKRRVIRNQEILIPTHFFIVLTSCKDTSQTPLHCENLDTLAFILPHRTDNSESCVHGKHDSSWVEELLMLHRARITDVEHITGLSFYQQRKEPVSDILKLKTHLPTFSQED

human NPP3 = target: T2, human NPP3 (Homo sapiens, UniProt O14638); experiment: Inhibition of NPP3 activity; type: biochemical; conditions: read-out: inhibition of NPP3 activity
T2 construct: made in house; host or cells: COS-7 cells (transfected; protein extract / cell lysate)
T2 sequence (O14638 1-875): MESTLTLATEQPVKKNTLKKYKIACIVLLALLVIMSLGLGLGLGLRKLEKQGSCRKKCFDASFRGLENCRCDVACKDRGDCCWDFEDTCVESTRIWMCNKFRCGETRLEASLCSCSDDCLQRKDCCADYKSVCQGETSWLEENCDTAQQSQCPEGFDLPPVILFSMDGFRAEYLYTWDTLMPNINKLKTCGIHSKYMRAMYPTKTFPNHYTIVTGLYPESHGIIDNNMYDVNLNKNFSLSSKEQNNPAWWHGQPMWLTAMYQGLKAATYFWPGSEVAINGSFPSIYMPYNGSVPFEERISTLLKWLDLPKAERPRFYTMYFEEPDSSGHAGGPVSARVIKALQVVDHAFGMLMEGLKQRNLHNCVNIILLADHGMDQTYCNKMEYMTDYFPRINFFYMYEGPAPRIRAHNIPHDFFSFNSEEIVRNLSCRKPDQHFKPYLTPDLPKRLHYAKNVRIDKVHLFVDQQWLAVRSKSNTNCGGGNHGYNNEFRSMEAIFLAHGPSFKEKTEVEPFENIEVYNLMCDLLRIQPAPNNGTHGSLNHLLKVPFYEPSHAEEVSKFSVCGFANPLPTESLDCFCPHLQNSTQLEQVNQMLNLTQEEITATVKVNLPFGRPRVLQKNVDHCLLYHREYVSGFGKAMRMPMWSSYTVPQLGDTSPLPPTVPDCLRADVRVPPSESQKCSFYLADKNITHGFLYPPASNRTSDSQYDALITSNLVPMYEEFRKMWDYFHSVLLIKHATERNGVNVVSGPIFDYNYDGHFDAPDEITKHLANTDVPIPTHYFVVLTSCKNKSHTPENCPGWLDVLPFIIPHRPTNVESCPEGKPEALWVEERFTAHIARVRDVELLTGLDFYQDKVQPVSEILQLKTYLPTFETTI
Method: Pnp-TMP hydrolyses were carried out at 37° C. in 0.2 ml of the following incubation mixture: in mM, 1 CaCl2, 130 NaCl, 5 KCl and 50 Tris, pH 8.5, with or without the analogue tested and/or substrates. Substrates and analogues were all used at the final concentration of 100 μM. […] For pnp-TMP hydrolysis, the production of para-nitro-phenol was measured at […], 15 min after the initiation of the reaction.
The samples were centrifuged for 5 min at 13,000×g. Supernatants were neutralized with 1 M KOH (Fisher Scientific, Ottawa, ON, Canada) at 4° C. and centrifuged for 5 min at 13,000×g.

human P2Y1-R = target: T3, human P2Y1-R (Homo sapiens, UniProt P47900); experiment: [Ca^2+]i response of 1321N1 astrocytoma cells expressing P2Y1-R GFP; type: cell-based; conditions: agonist; read-out: EC50 at the P2Y1 receptor
T3 construct: expressed in transfected cells; host or cells: 1321N1 astrocytoma cells
Method: GFP constructs of human P2Y2-R, P2Y1-R and P2Y11-R were stably expressed in 1321N1 astrocytoma cells, which lack endogenous expression of P2X- and P2Y-receptors. The respective cDNA of the receptor gene was cloned into a pEGFPN1 vector and after transfection, using FuGENE 6 Transfection Reagent (Roche Molecular Biochemicals, Mannheim, Germany), cells were selected with 0.5 mg/ml G418 (geneticine; Merck Chemicals, Darmstadt, Germany) and grown in DMEM supplemented with 10% serum (FCS), 100 U/ml penicillin and 100 U/ml streptomycin at 37° C. and 5% CO2. The expression and cell membrane localization of the respective P2Y receptors was confirmed through the analysis of the GFP fluorescence. The functionality of the expressed GFP-labeled receptor in cells was verified by recording a change of [Ca^2+]i after stimulation with the appropriate receptor agonist.
1321N1 astrocytoma cells transfected with the respective plasmid for P2Y-R-GFP expression plated on coverslips (22 mm diameter) and grown to approximately 80% density, were incubated with 2 μM fura 2/AM and 0.02% pluronic acid in Na-HBS buffer (Hepes buffered saline: 145 mM NaCl, 5.4 mM KCl, 1.8 mM CaCl2, 1 mM MgCl2, 25 mM glucose, 20 mM Hepes/Tris pH 7.4) for 30 min at 37° C. The cells were superfused (1 ml/min, 37° C.) with different concentrations of nucleotide in Na-HBS buffer. The nucleotide-induced change of [Ca^2+] was monitored by detecting the fluorescence intensities with excitations at 340 nm and 380 nm. Only GFP-labeled cells were analyzed. Microsoft Excel (Microsoft Corp., Redmond, Wash., USA) and SigmaPlot (SPSS Inc., Chicago, Ill., USA) were used to derive the concentration-response curves and EC50 values from the average response amplitudes obtained in at least three independent experiments (Ecke et al., 2006; Ecke et al., 2008). Only cells with a clear GFP-signal and with the typical calcium response kinetics upon agonist pulse application were included in the data analysis. The nucleotide induced change of [Ca^2+]i was monitored by detecting the respective emission intensity of fura 2/AM at 510 nm with 340 nm and 380 nm excitations (Ubl et al., 1998). The average maximal amplitude of the responses and the respective standard errors were calculated from ratio of the fura 2/AM. The GFP-tagged P2Y receptors are suitable for pharmacological and physiological studies, as previously reported (Tulapurkar et al., 2004; Tulapurkar et al., 2006; Zylberg et al., 2007).

[1] = ESR OH radical assay, Fe^2+/H2O2 Fenton system; conditions: N/A = minimal radical production exceeds 10%
Aβ28-Cu^+ complex = target: T4, Aβ28-Cu^+ complex (Homo sapiens, UniProt P05067); experiment: Titration of Aβ28-Cu^+ complex by chelators monitored by 1H-NMR; conditions: 0.8 mM Aβ28-Cu^+, pD 7; for effect on Aβ28-Cu^+ 1H-NMR spectrum: 6 eq chelator
T4 construct: we first studied Aβ28, as a more soluble fragment of Aβ40; purchased Sigma-Aldrich

PC12 cells = experiment: Inhibition of Fe(II)-induced ROS formation in PC12 cells (DCFH-DA); type: cell-based; conditions: PC12 cells, FeSO4 0.16 μM, 1 h, DCFH-DA; read-out: IC50 inhibition of ROS formation
Method: In this study, nucleoside 5′-phosphorothioate analogues were explored as inhibitors of Fe(II)-induced oxidative stress in PC12 cells used as a neuronal model. Reduction of ROS production in PC12 cells by each one of the tested analogues was measured by DCFH-DA, a radical sensitive indicator. After DCFH-DA was removed, the tested analogue was added to the cells at a final concentration of 0.2-200 μM. Oxidation was initiated by the addition of FeSO4 (0.16 μM) to the wells. The plates were incubated for 1 h at 37° C., during which the absorbance was read by a Tecan fluorometer at 485/530 nm.

T4 sequence (P05067 672-699 limits assumed, one chain of several): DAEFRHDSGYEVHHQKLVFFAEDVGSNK
T3 sequence (P47900 whole entry): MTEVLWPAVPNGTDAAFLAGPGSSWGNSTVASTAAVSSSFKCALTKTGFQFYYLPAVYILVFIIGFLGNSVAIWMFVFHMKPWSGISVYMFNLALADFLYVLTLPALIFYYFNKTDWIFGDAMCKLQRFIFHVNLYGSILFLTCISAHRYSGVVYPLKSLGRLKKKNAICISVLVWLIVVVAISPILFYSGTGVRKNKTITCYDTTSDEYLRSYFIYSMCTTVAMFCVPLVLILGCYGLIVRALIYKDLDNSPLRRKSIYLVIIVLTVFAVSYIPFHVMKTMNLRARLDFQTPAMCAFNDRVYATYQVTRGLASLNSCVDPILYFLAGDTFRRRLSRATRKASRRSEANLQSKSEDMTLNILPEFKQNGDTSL

Compound: Nc1ncnc2c1ncn2C1OC(COP(O)(=S)OP(=O)(O)CP(=O)(O)O)C(O)C1O (stereo not drawn) [APPCP-α-S, adenosine 5′-[Pα-thio]-β,γ-methylenetriphosphate]
type of inhibition (human NPP1): mixed type inhibition, predominantly competitive
inhibition at 100 µM (human NPP3): 23 to 43%
EC50 (human P2Y1-R): > 10 µM

Compound: Nc1nc2c(ncn2[C@@H]2O[C@H](COP(=O)(O)OP(=O)(O)O)[C@@H](O)[C@H]2O)c(=O)[nH]1 [GDP, gunosine diphosphate]
IC50 (cortical neurons): 21 ± 3.1 µM

Compound: N[C@@H](CCC(=O)N[C@@H](CS)C(=O)NCC(=O)O)C(=O)O [GSH, glutathione]
IC90 [1]: 491 ± 5 µM

Compound: Nc1nc2c(ncn2[C@@H]2O[C@H](COP(=O)(O)OP(=O)(O)OP(O)(O)=S)[C@@H](O)[C@H]2O)c(=O)[nH]1 [GTP-γ-S, guanosine 5′-[γ-thio]triphosphate]
equivalents at which the spectrum resembled that of pure Aβ28 (Aβ28-Cu^+ complex): 3.2 eq
IC50 (PC12 cells): 5 µM
IC50 (cortical neurons): 0.04 ± 0.01 µM

Compound: [Na+].[Na+].[Na+].[O-]P([O-])([O-])=S [Thiophosphate, trisodiumthiophosphate]
effect on Aβ28-Cu^+ 1H-NMR spectrum (Aβ28-Cu^+ complex): significant sharpening of the Aβ28 spectrum

Compound: O=P([O-])([O-])OP(=O)([O-])OP(=O)([O-])[O-].[Na+].[Na+].[Na+].[Na+].[Na+] [triphosphate, sodium triphosphate]
effect on Aβ28-Cu^+ 1H-NMR spectrum (Aβ28-Cu^+ complex): showed only Phe peaks reappearances without any His signals

Continued, values first:

IC50 (cortical neurons; Cortical neurone): 19 ± 1.9 µM
Compound: Nc1ncnc2c1ncn2[C@@H]1O[C@H](COP(=O)(O)OP(=O)(O)O)[C@@H](O)[C@H]1O [ADP, adenosine diphosphate]

IC50 (cortical neurons; Cortical neurone): 25 ± 3.3 µM
Compound: O=C(O)CC(O)(CC(=O)O)C(=O)O [Citrate]

IC50 (cortical neurons; Cortical neurone): 32 ± 2.3 µM
Compound: Nc1nc2c(ncn2[C@@H]2O[C@H](COP(=O)(O)OP(=O)(O)OP(=O)(O)O)[C@@H](O)[C@H]2O)c(=O)[nH]1 [GTP, guanosine triphosphate]

IC50 (cortical neurons; Cortical neurone): 23 ± 3.1 µM
Compound: Cc1c(C)c2c(c(C)c1O)CCC(C)(C(=O)O)O2 (centres unmarked) [Trolox]
